From US20260159512A1, “BCAT2 INHIBITORS” (AGIOS PHARMACEUTICALS, INC., priority 2021, published 2026) come the findings set out here.

Values joined by “and” are separate entries in the source; they are usually repeats but may differ in a detail not shown here. Equal entries are not always repeated.

Details in all cases: average where tested multiple times
Test [1] has as its target T1, BCAT2 (Homo sapiens, UniProt O15382).
T1 sequence (O15382 28-392): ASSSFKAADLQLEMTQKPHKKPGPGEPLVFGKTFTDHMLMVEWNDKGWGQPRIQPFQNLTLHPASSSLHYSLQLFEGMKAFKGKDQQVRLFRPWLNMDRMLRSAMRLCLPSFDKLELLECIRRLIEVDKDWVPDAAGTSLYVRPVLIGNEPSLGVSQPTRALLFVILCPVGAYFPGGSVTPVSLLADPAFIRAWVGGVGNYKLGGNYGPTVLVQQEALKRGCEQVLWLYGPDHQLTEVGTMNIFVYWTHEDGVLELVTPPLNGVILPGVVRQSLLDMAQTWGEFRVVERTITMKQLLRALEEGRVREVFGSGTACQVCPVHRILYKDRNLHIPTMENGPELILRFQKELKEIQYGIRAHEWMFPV
The test can be described thus: BCAT2 in vitro enzyme inhibition assay (resazurin/diaphorase-coupled fluorescence). In kind it is biochemical. The method, boiled down:
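Coupled fluorescence readout: glutamate formed from L-leucine/α-ketoglutarate transamination drives GDH/NAD/diaphorase reduction of resazurin (Ex 540/Em 590). Human BCAT2 was first exposed 1 h at room temperature to compound, top final 100 μM in 3-fold, 10-point series; substrate reaction ran 1 h before SDS quench, in technical duplicate with DMSO max and enzyme-free min controls.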
For orientation: Alamar Blue is a resazurin reagent that responds to reducing activity.

Test [2] addresses T1, BCAT2. The test can be described thus: BCAT2 in vitro cell inhibition using engineered A549 cells (KMV cell assay, 13C6-KMV by LC-MS/MS). In kind it is cell-based. The arrangement: The result was an engineered A549 cell line that expressed endogenous BCAT2; endogenous in cells; host or cells: A549 cells with MUT and BCAT1 knocked out by CRISPR/CAS9; key to BCAT2 Cell Inhibition: A: less than or equal to 0.100 μM; B: greater than 0.100 and less than or equal to 0.500 μM; C: greater than 0.500 and less than or equal to 1.000 μM; d: greater than 1.000 μM; E: no fit.

Another test deals with T2, hBCAT1 (Homo sapiens, UniProt P54687).
T2 sequence (P54687 1-386): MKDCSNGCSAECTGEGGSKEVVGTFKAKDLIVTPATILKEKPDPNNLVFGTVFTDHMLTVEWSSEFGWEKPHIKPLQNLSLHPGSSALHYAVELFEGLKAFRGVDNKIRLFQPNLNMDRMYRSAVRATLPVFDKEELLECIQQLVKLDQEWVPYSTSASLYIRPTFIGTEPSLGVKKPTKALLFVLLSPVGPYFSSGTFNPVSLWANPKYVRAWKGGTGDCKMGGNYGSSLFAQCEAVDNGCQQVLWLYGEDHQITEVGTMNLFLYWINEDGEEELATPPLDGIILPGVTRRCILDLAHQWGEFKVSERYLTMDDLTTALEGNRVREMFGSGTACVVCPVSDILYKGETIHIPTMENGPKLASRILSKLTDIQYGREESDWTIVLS
The test can be described thus: BCAT1 in vitro enzyme inhibition assay (resazurin/diaphorase-coupled fluorescence). It counts as biochemical. The method in brief:
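Human BCAT1 activity read by resazurin/diaphorase-coupled fluorescence. Compounds added from 50× DMSO stocks at 1:50, giving 10-point 3-fold titrations from 100 μM top final concentration. Run in technical duplicate; repeat tests averaged.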

In the case of `O=C(N[C@H]1CCC[C@@H](n2c(C3CCCCO3)nc3cnc(-c4nc[nH]n4)cc32)C1)c1ncc(Cl)s1` (single isomer, unassigned) [Example 90], the figures for the half-maximal inhibitory concentration (IC50) against BCAT2 [1], on BCAT2 [2] and against hBCAT1 were no more than 100 nM, 100 to 500 nM and less than 500 nM, respectively.

As to `Cc1cn[nH]c1-c1cc2c(cn1)nc(-c1ccccc1F)n2[C@@H]1CCC[C@H](NC(=O)c2ncc(Cl)s2)C1` [Example 186, 5-chloro-N-((1S,3R)-3-(2-(2-fluorophenyl)-6-(4-methyl-1H-pyrazol-5-yl)-1H-imidazo[4,5-c]pyridin-1-yl)cyclohexyl)thiazole-2-carboxamide], the half-inhibitory concentration (IC50) is no more than 100 nM against BCAT2 [1], no more than 100 nM against BCAT2 [2] and less than 500 nM at hBCAT1.

As for `C#Cc1cnc(C(=O)N[C@H]2CCC[C@@H](n3c(-c4ccccn4)nc4cnc(-n5nccn5)cc43)C2)s1` [Example 20, 5-ethynyl-N-((1S,3R)-3-(2-(pyridin-2-yl)-6-(2H-1,2,3-triazol-2-yl)-1H-imidazo[4,5-c]pyridin-1-yl)cyclohexyl)thiazole-2-carboxamide], the IC50 against BCAT2 [1] is no more than 100 nM; at BCAT2 [2] it was no more than 100 nM; at hBCAT1 it was less than 500 nM.

Turning to `CC(Oc1nc2cnc(-n3nccn3)cc2n1[C@@H]1CCC[C@H](NC(=O)c2ncc(C(F)F)s2)C1)C(F)(F)F` (stereo partly drawn) [Example 98, N-((1S,3R)-3-(6-(2H-1,2,3-triazol-2-yl)-2-((1,1,1-trifluoropropan-2-yl)oxy)-1H-imidazo[4,5-c]pyridin-1-yl)cyclohexyl)-5-(difluoromethyl)thiazole-2-carboxamide], the IC50 was 100 to 500 nM on BCAT2 [1], greater than 1000 nM at BCAT2 [2] and greater than 5000 nM against hBCAT1.

For the compound `Cn1ccc(-c2nc3cnc(-n4nccn4)cc3n2[C@@H]2CCC[C@H](NC(=O)c3ncc(C(F)F)s3)C2)n1` [Example 41, 5-(difluoromethyl)-N-((1S,3R)-3-(2-(1-methyl-1H-pyrazol-3-yl)-6-(2H-1,2,3-triazol-2-yl)-1H-imidazo[4,5-c]pyridin-1-yl)cyclohexyl)thiazole-2-carboxamide], the IC50 on BCAT2 [1] is 100 to 500 nM; on BCAT2 [2], greater than 1000 nM; against hBCAT1, greater than 5000 nM.

`O=C(N[C@H]1CCC[C@@H](n2c(-c3ccccc3F)nc3cnc(-c4nc[nH]n4)cc32)C1)c1ncc(Cl)s1` [Example 83, 5-chloro-N-((1S,3R)-3-(2-(2-fluorophenyl)-6-(1H-1,2,4-triazol-3-yl)-1H-imidazo[4,5-c]pyridin-1-yl)cyclohexyl)thiazole-2-carboxamide]: the figures for the IC50 at BCAT2 [1], on BCAT2 [2] and at hBCAT1 were no more than 100 nM, no more than 100 nM and less than 500 nM, respectively.

Regarding `O=C(N[C@H]1CCC[C@@H](n2c(-c3ccccc3F)nc3cnc(-n4nccn4)cc32)C1)c1ncc(Cl)s1` [Example 71, 5-chloro-N-((1S,3R)-3-(2-(2-fluorophenyl)-6-(2H-1,2,3-triazol-2-yl)-1H-imidazo[4,5-c]pyridin-1-yl)cyclohexyl)thiazole-2-carboxamide], the results for the concentration for half-maximal inhibition (IC50) against BCAT2 [1], against BCAT2 [2] and at hBCAT1 were no more than 100 nM, no more than 100 nM and less than 500 nM, respectively.

Take `O=C(N[C@H]1CCC[C@@H](n2c(-c3ccccc3F)nc3cnc(-c4ccccn4)cc32)C1)c1ncc(Cl)s1` [Example 104, 5-chloro-N-((1S,3R)-3-(2-(2-fluorophenyl)-6-(pyridin-2-yl)-1H-imidazo[4,5-c]pyridin-1-yl)cyclohexyl)thiazole-2-carboxamide]: the values for the IC50 on BCAT2 [1], against BCAT2 [2] and against hBCAT1 were no more than 100 nM, no more than 100 nM and less than 500 nM, respectively.

Take `O=C(N[C@H]1CCC[C@@H](n2c(-c3ccccn3)nc3cnc(-n4ccnn4)cc32)C1)c1ncc(C(F)F)s1` [Example 34, 5-(difluoromethyl)-N-((1S,3R)-3-(2-(pyridin-2-yl)-6-(1H-1,2,3-triazol-1-yl)-1H-imidazo[4,5-c]pyridin-1-yl)cyclohexyl)thiazole-2-carboxamide]: the figures for the 50% inhibitory concentration (IC50) against BCAT2 [1] and against hBCAT1 were 100 to 500 nM and greater than 5000 nM, respectively. Also, at BCAT2 [2], the “BCAT2 Cell Inhibition” value was “E”.

Consider `Cc1nc(-c2cc3c(cn2)nc(CC(C)C)n3[C@@H]2CCC[C@H](NC(=O)c3ncc(Cl)s3)C2)n[nH]1` [Example 165, 5-chloro-N-((1S,3R)-3-(2-isobutyl-6-(5-methyl-1H-1,2,4-triazol-3-yl)-1H-imidazo[4,5-c]pyridin-1-yl)cyclohexyl)thiazole-2-carboxamide], for which the values for the IC50 on BCAT2 [1], at BCAT2 [2] and on hBCAT1 were no more than 100 nM, no more than 100 nM and less than 500 nM, respectively.

For the compound `O=C(NC1CC(O)CC(n2c(-c3ccccc3F)nc3cnc(-n4nccn4)cc32)C1)c1ncc(Cl)s1` (stereo not drawn) [Example 109, 5-chloro-N-(3-(2-(2-fluorophenyl)-6-(2H-1,2,3-triazol-2-yl)-1H-imidazo[4,5-c]pyridin-1-yl)-5-hydroxycyclohexyl)thiazole-2-carboxamide], the half-maximal inhibitory concentration (IC50) on BCAT2 [1] is no more than 100 nM; against BCAT2 [2] it was no more than 100 nM; against hBCAT1, less than 500 nM.

Turning to `CC(C)Cc1nc2cnc(-n3ccc(N)n3)cc2n1[C@@H]1CCC[C@H](NC(=O)c2ncc(Cl)s2)C1` [Example 334, N-((1S,3R)-3-(6-(3-amino-1H-pyrazol-1-yl)-2-isobutyl-1H-imidazo[4,5-c]pyridin-1-yl)cyclohexyl)-5-chlorothiazole-2-carboxamide], the values for the IC50 against BCAT2 [1], against BCAT2 [2] and against hBCAT1 were no more than 100 nM, 500 to 1000 nM and less than 500 nM, respectively.

Turning to `O=C(N[C@H]1CCC[C@@H](n2c(-c3ccccc3F)nc3cnc(-c4cccnc4)cc32)C1)c1ncc(Cl)s1` [Example 180, 5-chloro-N-((1S,3R)-3-(2-(2-fluorophenyl)-6-(pyridin-3-yl)-1H-imidazo[4,5-c]pyridin-1-yl)cyclohexyl)thiazole-2-carboxamide], the figures for the IC50 against BCAT2 [1], against BCAT2 [2] and on hBCAT1 were no more than 100 nM, 100 to 500 nM and 1000 to 5000 nM, respectively.

As for `CC(C)Cc1nc2cnc(-c3ccn(C(F)F)n3)cc2n1[C@@H]1CCC[C@H](NC(=O)c2ncc(Cl)s2)[C@H]1O` [Example 230, 5-chloro-N-((1S,2R,3R)-3-(6-(1-(difluoromethyl)-1H-pyrazol-3-yl)-2-isobutyl-1H-imidazo[4,5-c]pyridin-1-yl)-2-hydroxycyclohexyl)thiazole-2-carboxamide], the figures for the IC50 on BCAT2 [1], against BCAT2 [2] and against hBCAT1 were no more than 100 nM, greater than 1000 nM and 500 to 1000 nM, respectively.

With `O=C(N[C@H]1CCC[C@@H](n2c(-c3ncccc3F)nc3cnc(-c4nc[nH]n4)cc32)C1)c1ncc(C(F)F)s1` [Example 75, 5-(difluoromethyl)-N-((1S,3R)-3-(2-(3-fluoropyridin-2-yl)-6-(1H-1,2,4-triazol-3-yl)-1H-imidazo[4,5-c]pyridin-1-yl)cyclohexyl)thiazole-2-carboxamide], the IC50 at BCAT2 [1] is no more than 100 nM; against BCAT2 [2], no more than 100 nM; against hBCAT1, less than 500 nM.

Regarding `CC(=O)N1CC(NC(=O)c2ncc(C(F)F)s2)CC(n2c(-c3ncccc3F)nc3cnc(-n4ccnn4)cc32)C1` (stereo not drawn) [Example 120, N-(1-acetyl-5-(2-(3-fluoropyridin-2-yl)-6-(1H-1,2,3-triazol-1-yl)-1H-imidazo[4,5-c]pyridin-1-yl)piperidin-3-yl)-5-(difluoromethyl)thiazole-2-carboxamide], the IC50 against BCAT2 [1] is no more than 100 nM; at BCAT2 [2], greater than 1000 nM; on hBCAT1, 1000 to 5000 nM and > 5000 nM.

Usually IC50 stands for the concentration needed to halve the response being measured.
